These results are taken from ChEMBL document CHEMBL1154434, “Novel keto-enamine Schiffs bases from 7-hydroxy-4-methyl-2-oxo-2H-benzo[h] chromene-8,10-dicarbaldehyde as potential antidyslipidemic and antioxidant agents” (2008).

Holding throughout (type): functional
The subject of assay [1] is Rattus norvegicus. Put plainly: Antidyslipidemic activity in WR-1339-induced hyperlipidemic Charles Foster rat assessed as reduction in plasma cholesterol level at 100 mg/kg, po after 18 hrs. Details: scale not given: the % may be the effect or the level left.
The subject of assay [2] is Rattus norvegicus. Put plainly: Antidyslipidemic activity in WR-1339-induced hyperlipidemic Charles Foster rat assessed as reduction in plasma triglyceride level at 100 mg/kg, po after 18 hrs. Details: scale not given: the % may be the effect or the level left.
Assay [3] has as its system Rattus norvegicus. Put plainly: Antidyslipidemic activity in WR-1339-induced hyperlipidemic Charles Foster rat assessed as reduction in plasma phospholipid level at 100 mg/kg, po after 18 hrs. Further details: scale not given: the % may be the effect or the level left.
Assay [4] in a line: Antioxidant activity assessed as inhibition of microsomal lipid peroxidation at 100 ug/mL.
A short description of assay [5]: Antioxidant activity assessed as inhibition of hydroxyl radical at 100 ug/mL.
Assay [6] can be described thus: Antioxidant activity assessed as inhibition of superoxide at 20 ug/mL.
Assay [7] in a line: Antioxidant activity assessed as inhibition of superoxide at 100 ug/mL.

`Cc1ccc(C)c(OCCCC(C)(C)C(=O)O)c1` [GEMFIBROZIL]: the Activity was determined as 33% in the assay with Rattus norvegicus [1], 34% in the assay with Rattus norvegicus [2] and 32% in the assay on Rattus norvegicus [3].

A word on the inhibition: it is the share of the control response that was lost under treatment. Turning to `Cc1cc(=O)oc2c3c(ccc12)C(=O)/C(=C\NCCC1CNCCO1)C=C3C=O` (stereo not given), the Activity with Rattus norvegicus [1] came out at 20%; in the assay with Rattus norvegicus [2], 25%; in the assay on Rattus norvegicus [3] it was 21%. For the same compound, in assay [4], the inhibition was found to be 31%.

`Cc1c(C)c2c(c(C)c1O)CC[C@@](C)(CCC[C@H](C)CCC[C@H](C)CCCC(C)C)O2`: the inhibition was 48% in assay [5] and 45% in assay [4].

On to `Oc1ncnc2[nH]ncc12`, for which, in assay [6], the inhibition turned out to be 90%.

For the compound `Cc1cc(=O)oc2c1ccc1c(O)c(C=O)cc(C=O)c12`, the Activity came to 23% in the assay with Rattus norvegicus [1], 21% in the assay on Rattus norvegicus [2] and 25% with Rattus norvegicus [3]. The inhibition in assay [7] is 72%; in assay [5], 52%; in assay [4], 27%.

On to `CCCCCCCN/C=C1/C=C(C=O)c2c(ccc3c(C)cc(=O)oc23)C1=O`, for which the results for the Activity in the assay on Rattus norvegicus [1], in the assay on Rattus norvegicus [2] and in the assay with Rattus norvegicus [3] were 24%, 22% and 20%, respectively. In addition, the inhibition was 45% in assay [7], 49% in assay [5] and 34% in assay [4].

Turning to `OC[C@@H](O)[C@@H](O)[C@H](O)[C@H](O)CO`, the figures for the inhibition in assay [5] and in assay [4] were 48% and 45%, respectively.

For the compound `CCCCN/C=C1/C=C(C=O)c2c(ccc3c(C)cc(=O)oc23)C1=O`, the inhibition in assay [4] was 37%.
